A short description of series [1]: The compound was tested for ratio of inhibition of dihydrofolate reductase(DHFR) from rat(rl) liver and Pneumocystis carinii(pc).
Series [2] can be described thus: The compound was tested for ratio of inhibition of dihydrofolate reductase(DHFR) from rat(rl) liver and Toxoplasma gondii(tg).
Series [3] deals with T1, Bifunctional dihydrofolate reductase-thymidylate synthase (Toxoplasma gondii, UniProt Q07422).
T1 sequence (Q07422 whole entry): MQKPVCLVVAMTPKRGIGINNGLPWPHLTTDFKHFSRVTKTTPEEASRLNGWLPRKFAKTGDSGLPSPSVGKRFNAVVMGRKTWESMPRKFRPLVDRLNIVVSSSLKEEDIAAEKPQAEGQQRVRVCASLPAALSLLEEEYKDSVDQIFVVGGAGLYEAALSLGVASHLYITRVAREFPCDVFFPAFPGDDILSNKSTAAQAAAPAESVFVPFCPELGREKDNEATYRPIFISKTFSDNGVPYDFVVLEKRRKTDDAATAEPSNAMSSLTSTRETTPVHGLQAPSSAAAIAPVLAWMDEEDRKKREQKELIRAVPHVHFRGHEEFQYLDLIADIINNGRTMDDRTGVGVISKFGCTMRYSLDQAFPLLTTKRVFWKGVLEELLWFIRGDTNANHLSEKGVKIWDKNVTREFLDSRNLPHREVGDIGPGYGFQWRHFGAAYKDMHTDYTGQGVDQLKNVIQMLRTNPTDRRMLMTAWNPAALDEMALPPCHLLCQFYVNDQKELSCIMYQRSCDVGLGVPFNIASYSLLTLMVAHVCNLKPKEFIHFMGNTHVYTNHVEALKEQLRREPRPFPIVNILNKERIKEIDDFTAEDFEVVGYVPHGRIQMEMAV
Briefly: Inhibition of dihydrofolate reductase (DHFR) from Toxoplasma gondii(tg).

Series [4] deals with T2, Dihydrofolate reductase (Pneumocystis carinii, UniProt P16184).
T2 sequence (P16184 whole entry): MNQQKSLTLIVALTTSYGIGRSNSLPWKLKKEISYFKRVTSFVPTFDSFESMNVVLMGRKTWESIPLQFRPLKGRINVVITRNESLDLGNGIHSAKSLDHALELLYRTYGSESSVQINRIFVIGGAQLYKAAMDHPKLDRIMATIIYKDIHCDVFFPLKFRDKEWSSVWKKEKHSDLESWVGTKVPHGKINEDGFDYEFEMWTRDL
Description: Inhibition of dihydrofolate reductase (DHFR) from Pneumocystis carinii(pc)

In series [5] the target is T3, Dihydrofolate reductase (Rattus norvegicus, UniProt Q920D2).
T3 sequence (Q920D2 whole entry): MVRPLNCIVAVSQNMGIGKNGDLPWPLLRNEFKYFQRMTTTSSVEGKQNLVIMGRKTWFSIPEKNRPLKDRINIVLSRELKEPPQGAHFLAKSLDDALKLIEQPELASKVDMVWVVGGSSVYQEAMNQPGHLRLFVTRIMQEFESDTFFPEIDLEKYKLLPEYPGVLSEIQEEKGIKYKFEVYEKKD
Description: Inhibition of dihydrofolate reductase (DHFR) from rat liver (rl)

The nature of series [6]: Log Ko/w value by LOGKOW program. The series is classed as ADME. The following applies: octanol/water; read-out: Log Ko/w.
In the next series the test system is Toxoplasma gondii. As to the kind of experiment: Inhibitory concentration of cell growth from Toxoplasma gondii. The series is classed as functional, organism-based.
Series [7] can be described thus: The compound was tested for ratio of inhibition of cell growth and dihydrofolate reductase(DHFR). It counts as functional.

These results are taken from ChEMBL document CHEMBL1132261, “Pneumocystis carinii and Toxoplasma gondii dihydrofolate reductase inhibitors and antitumor agents: synthesis and biological activities of 2,4-diamino-5-methyl-6-[(monosubstituted anilino)methyl] pyrido[2,3-d]pyrimidines” (J Med Chem, 1999).

One may read the IC50 as the concentration that gives 50% inhibition. Lower therefore signals higher potency.

Molecules are shown by their SMILES.

Take `COc1ccc(N(C)Cc2cnc3nc(N)nc(N)c3c2C)cc1OC`: the Ratio in series [1] is 0.1; in series [2], 1.5.

As for `Cc1c(CNc2ccc(Br)cc2)cnc2nc(N)nc(N)c12`, the figures for the half-maximal inhibitory concentration (IC50) (in series [3]; against Dihydrofolate reductase [4]; against Dihydrofolate reductase [5]) were 9.5 nM, 80.8 nM and 34.9 nM, respectively.

As to `COc1ccc(NCc2cnc3nc(N)nc(N)c3c2C)cc1OC`, on Dihydrofolate reductase [5], the concentration for half-maximal inhibition (IC50) is 44 nM.

Consider `COc1cc(N(C)Cc2cnc3nc(N)nc(N)c3c2C)cc(OC)c1OC`, for which the logP in series [6] worked out at 1.76.

Turning to `Cc1c(CN(C)c2ccc(Cl)cc2)cnc2nc(N)nc(N)c12`, the IC50 came to 5.4 nM in series [3], 29 nM on Dihydrofolate reductase [4] and 26 nM against Dihydrofolate reductase [5].

For `COc1ccccc1NCc1cnc2nc(N)nc(N)c2c1C`, the IC50 in series [3] is 23 nM; on Dihydrofolate reductase [4], 117 nM; at Dihydrofolate reductase [5], 169 nM.

As to `Cc1c(CNc2cccc(Cl)c2)cnc2nc(N)nc(N)c12`, the values for the IC50 (in series [3]; against Dihydrofolate reductase [4]; at Dihydrofolate reductase [5]) were 11 nM, 23 nM and 37 nM, respectively.

As for `COc1cccc(NCc2cnc3nc(N)nc(N)c3c2C)c1`, the concentration for half-maximal inhibition (IC50) in series [3] worked out at 7.4 nM; in the series on Toxoplasma gondii it was 371 nM; against Dihydrofolate reductase [4], 68.9 nM; against Dihydrofolate reductase [5], 80.1 nM. Also, in series [7], the Ratio was found to be 50. Moreover, in series [6], the logP came out at 2.14.

For the molecule `Cc1c(CNc2ccccc2)cnc2nc(N)nc(N)c12`, the IC50 stood at 17 nM in series [3], 317 nM in the series with Toxoplasma gondii, 80 nM on Dihydrofolate reductase [4] and 170 nM against Dihydrofolate reductase [5]. Also, the Ratio in series [7] amounted to 19. In series [6], the logP is 1.79.

On to `Cc1c(CNc2ccc(Cl)cc2)cnc2nc(N)nc(N)c12`, for which the results for the IC50 (in series [3]; against Dihydrofolate reductase [4]; at Dihydrofolate reductase [5]) were 19 nM, 55.4 nM and 51 nM, respectively.

On to `Cc1c(CN(C)c2ccc(Br)cc2)cnc2nc(N)nc(N)c12`, for which the half-maximal inhibitory concentration (IC50) in series [3] was 30 nM; against Dihydrofolate reductase [4], 37 nM; on Dihydrofolate reductase [5] it was 36 nM.

As for `Cc1c(CN(C)c2ccccc2Cl)cnc2nc(N)nc(N)c12`, the values for the IC50 (in series [3]; against Dihydrofolate reductase [4]; against Dihydrofolate reductase [5]) were 18 nM, 84 nM and 100 nM, respectively.

For `Cc1c(CNc2ccccc2Cl)cnc2nc(N)nc(N)c12`, the IC50 in series [3] is 7.1 nM; with Toxoplasma gondii it was 58 nM; at Dihydrofolate reductase [4], 47 nM; on Dihydrofolate reductase [5], 88 nM. Besides, the Ratio in series [7] is reported as 8. For the same molecule, the logP in series [6] was 2.35.

With `COc1ccc(N(C)Cc2cnc3nc(N)nc(N)c3c2C)cc1`, the IC50 worked out at 7.3 nM in series [3], 35 nM against Dihydrofolate reductase [4] and 13 nM against Dihydrofolate reductase [5].

For `COc1ccc(OC)c(N(C)Cc2cnc3nc(N)nc(N)c3c2C)c1`, the Ratio in series [7] came out at 35. Further, in series [6], the logP turned out to be 2.42.

As to `COc1ccc(NCc2cnc3nc(N)nc(N)c3c2C)cc1`, the concentration for half-maximal inhibition (IC50) in series [3] amounted to 12 nM; against Dihydrofolate reductase [4] it was 95.4 nM; on Dihydrofolate reductase [5] it was 55.6 nM.

Turning to `COc1cccc(N(C)Cc2cnc3nc(N)nc(N)c3c2C)c1`, the concentration for half-maximal inhibition (IC50) is 6.3 nM in series [3], 30 nM against Dihydrofolate reductase [4] and 18 nM at Dihydrofolate reductase [5].
